Patent US20070087988A1, “Hematopoietic progenitor kinase 1 for modulation of an immune response” (New York University, priority 2005, published 2007)

Experiments:
HPK1 = HPK1 immune complex in vitro kinase (IVK) assay, endogenous HPK1 from treated Jurkat cells; assay type: cell-based, human; settings: Jurkat cells, 10 pM PGE2
murine HPK1 = assay: IVK assay of HA-tagged murine HPK1 (wild type and mutants) transfected into Jurkat cells; assay type: cell-based, mouse; settings: Jurkat transfectants
Text: The pcDNA3 vector containing mouse cDNA encoding the HA-tagged wild type murine HPK1 and a proline-rich-deleted construct were constructed by Dr. F. Kiefer (Liu et al., 2000, J. Immunol. 165:1417). QuickChange™ mutagenesis system was used to alter the wild type HPK1 construct to encode the desired point mutations (Stratagene, La Jolla, Calif.). Mutated constructs were sequenced to verify the presence of the desired mutation and for the absence of PCR-generated mutations.
Jurkat T cells (1.5×10^7) were transfected as described in (Chang et al., 1998, Mol. Cell. Biol. 18:4986). Whole cell lysates derived from resting or stimulated transfectants were subjected to immunoprecipitations by the indicated antibodies, and were subjected to in vitro kinase reactions as described in (Kiefer et al., 1996, EMBO J. 15:7013 and (Sawasdikosol et al., 2003, Blood 101:3687). Anti-murine HPK1 #7 antibody was used to detect the ectopically expressed HPK wild type and mutant murine HPK1.
To assess the role of the proline-rich motifs in PGE2-induced HPK1 activation, cells were transfected with constructs that encoded either the HA-tagged wild type HPK1 or a mutant form in which the P1, P2, and P4 proline-rich motifs (HA-ΔP-HPK1) were deleted (FIG. 8A). Transfectants were left untreated, stimulated by 10 pM of PGE2, or stimulated by TCR crosslinking. The ectopically expressed HPK1 proteins were subjected to anti-HA immunoprecipitation and were subjected to IVK assay. […] This limits the possibility that adapter proteins play a role in this process.
To assess the importance of arginine 168, arginine 169 and serine 171 in PGE2-induced HPK1 activation, a panel of mutant HPK1 expression constructs that encode a point mutation at each of these amino acids was created. In these mutants, arginines were changed to lysines and serine was changed to alanine. These mutant HPK1 constructs were transfected into Jurkat cells and the ectopically expressed HA-tagged HPK1 were immunoprecipitated from resting or PGE2 stimulated cells.

tyrosine phosphorylation = assay: Anti-phosphotyrosine immunoblotting of Jurkat lysates and HPK1 immunoprecipitates; assay type: cell-based, human; settings: 10 pM PGE2
Description: Cells were lysed in a buffer containing 1% Nonidet P-40 (NP-40) and 50 mM Tris, pH 7.6, 150 mM NaCl, 1 mM […], 10 mM NaF, 10 mM sodium pyrophosphate, 10 μg/ml each of aprotinin and leupeptin, and 2 mM phenylmethylsulfonyl fluoride (PMSF). The lysates were pre-cleared with protein A-Sepharose™ and subsequently, proteins were immunoprecipitated with either 2 μg of anti-Crk antibody or an equal amount of normal rabbit Ig by incubation at 4° C. for two hours. The beads were washed with 0.1% NP-40 in immunoprecipitation wash buffer (150 mM NaCl, 20 mM HEPES, pH 7.4, 10% glycerol, 1 mM […], 5 mM NaF, and 10 μg/ml each of aprotinin and leupeptin), and the bead-bound proteins were separated by SDS-PAGE. The proteins were transferred to a polyvinylidene fluoride (PVDF) membrane, immunoblotted with the indicated antibodies and developed by the enhanced chemiluminescence (ECL) system (Amersham Corp., Arlington Heights, Ill.).
It has been reported that binding of PGE2 to its GPCR leads to rapid activation of HPK1 kinase activity (Sawasdikosol et al., 2003, Blood 101:3687). […] First, it was assessed whether PGE2 stimulation would induce general tyrosine phosphorylation in the Jurkat T cell line was examined. […]

T cells [1] = assay: Mixed leukocyte reaction (MLR) T cell proliferation, 3H-thymidine; assay type: cell-based, mouse; settings: MLR with LPS-matured BMDCs, addition of PGE2
Description: MLR was performed as described in Sallusto et al. (1994, J. Exp. Med. 179:1009-1118) with minor modifications. Naïve T cells from an allogeneic SJL mouse were purified using CD62L magnetic beads (Milentyi Biotech, Inc., CA). In a 96-well round bottom plate, T cells (1×10^5) were used as responders and incubated with HPK1^−/− and wild type, immature or LPS-matured bone marrow derived dendritic cells (BMDCs) as stimulators. Naïve T cells plus 10 μg/ml ConA were used as a positive control.
In these experiments, T cells were purified and subjected to a mixed leukocyte reaction (MLR) with wild type allogeneic BMDCs in the presence or absence of PGE2. […] To assess this, the same study was repeated under conditions where the magnitude of the MLR response was similar in the two cell types by manipulating the T cell to DC ratio. […] Similar resistance to PGE2 was observed when HPK1^−/− T cells were stimulated by T cell receptor activation with anti-CD3- and anti-CD28-mediated crosslinking in the presence of PGE2 (FIG. 20B).

T cells [2] = assay: IL-2 production by ELISA of T cell supernatants; assay type: cell-based, mouse
Description: Supernatants from the proliferation assay were collected for ELISA prior to addition of ^3H-thymidine. The protocol used for ELISA followed the instructions from BD Pharmingen.
Supernatants from the proliferation assay were collected for ELISA prior to addition of ^3H thymidine. For profiling experiments, supernatants were collected as above, with variable time points. […] Cells were then washed with PBS, re-seeded in fresh medium and stimulated with 2 μg/ml plate bound anti-CD3 and 1 μg/ml soluble anti-CD28 for eight hours and supernatants were collected for analysis. Protocol used for ELISA follows BD Pharmingen instructions.

T cells [3] = assay: Apoptosis of TCR-stimulated T cells, annexin V / 7AAD staining; assay type: cell-based, mouse
[4] = Example 4, ELISA, addition of PGE2
[5] = Example 7, 3 day TCR stimulated cells, ELISA, 1 nM PGE2

SMILES: CCCCC[C@H](O)/C=C/[C@H]1[C@H](O)CC(=O)[C@@H]1C/C=C\CCCC(=O)O [PGE2, prostaglandin E2]
- HPK1 catalytic activity (IVK) (HPK1): activate the catalytic activity of HPK1
- kinase response of HA-HPK1 (wild type) (murine HPK1; 10 pM PGE2): responded competently
- kinase response of HPK1 proline-rich deleted mutant (HA-ΔP-HPK1) (murine HPK1; 10 pM PGE2): responded to PGE2 stimulation
- kinase response of HPK1 serine 171 to alanine mutant to PGE2 (murine HPK1; PGE2 stimulated): ablated the response
- reduction of responsiveness to PGE2 stimulation, HPK1 arginine to lysine mutation at residue 168 or 169 (murine HPK1; PGE2 stimulated): approximately 90%
- global tyrosine phosphorylation level (tyrosine phosphorylation; Jurkat whole cell lysates): no detectable change
- tyrosine phosphorylation of HPK1 (tyrosine phosphorylation; immunoprecipitated HPK1, Jurkat): did not induce detectable tyrosine phosphorylation
- inhibition of proliferation, HPK1−/− T cells, MLR (T cells [1]): ~25%
- inhibition of proliferation, wild type T cells, MLR (T cells [1]): ~90%
- percentage of IL-2 inhibition, HPK1−/− T cells (T cells [2]; [4]): ~30%
- percentage of IL-2 inhibition, wild type T cells (T cells [2]; [4]): ~84%
- inhibition of IL-2 production, HPK1−/− T cells (T cells [2]; [5]): ~26%
- inhibition of IL-2 production, wild type cells (T cells [2]; [5]): ~88%
- wild type cells undergoing apoptosis (annexin V) (T cells [3]; three days of TCR stimulation with PGE2, 47% in cells not treated with PGE2): over 75%
- rate of HPK1−/− T cell apoptosis (T cells [3]; three days of TCR stimulation, addition of PGE2): did not significantly increase
